From patent US6653110B2 (Ajinomoto Co., Inc., priority 2001, dated 2003) come the findings set out here.

The test system of this test is Enterobacter agglomerans AJ13601 strain. The test is described as follows: Growth inhibition by organic acid at acidic pH (main culture in jar fermenter). The following applies: for Growth inhibition: organic acid 0.5 g/L in main culture medium, pH 4.5, 34° C. Type of test: cell-based. Here is the method: Therefore, an experiment concerning the growth inhibition by an organic acid was performed at an acidic pH.
The Enterobacter agglomerans AJ13601 strain was cultured on LBG agar medium (10 g/L of trypton, 5 g/L of yeast extract, 10 g/L of NaCl and 15 g/L of agar) containing 25 mg/L of tetracycline hydrochloride and 25 mg/L of chloramphenicol at 30° C. for 14 hours, and one platinum loop of the cells were taken and inoculated into 300 mL of a seed culture medium having the following composition in a 1 L-volume jar fermenter to perform seed culture at 34° C. at pH 6.0.
50 g/L of sucrose, 0.4 g/L of magnesium sulfate heptahydrate, 4.0 g/L of ammonium sulfate, 2.0 g/L of monopotassium dihydrogenphosphate, 4.0 g/L of yeast extract, 0.01 g/L of ferrous sulfate heptahydrate, 0.01 g/L manganese sulfate pentahydrate, 0.4 g/L of L-lysine hydrochloride, 0.4 g/L of DL-methionine, 0.4 g/L of DL-α,ε-diaminopimelic acid, 25 mg/L of tetracycline hydrochloride and 25 mg/L of chloramphenicol
pH was controlled by adding ammonia gas during the culture. The seed culture was terminated by observing depletion of the saccharide in the seed culture medium as a marker, and the seed culture broth was inoculated into 300 mL of a main culture medium contained in 1 L-volume jar fermenters in an amount of 20% of the volume of the main culture medium to perform the main culture. The composition of the main culture medium is shown below. When an experiment for the growth inhibition by an organic acid is performed, the experiment was performed by adding the organic acid at a predetermined concentration.
20 g/L of glucose, 0.4 g/L of magnesium sulfate heptahydrate, 5.0 g/L of ammonium sulfate, 6.0 g/L of monopotassium dihydrogenphosphate, 1.5 g/L of sodium chloride, 0.01 g/L of ferrous sulfate heptahydrate, 0.01 g/L of manganese sulfate pentahydrate, 0.8 g/L of L-lysine hydrochloride, 0.6 g/L of DL-methionine, 0.6 g/L of DL-α,ε-diaminopimelic acid, 25 mg/L of tetracycline hydrochloride, 25 mg/L of chloramphenicol, 6.0 g/L of yeast extract and 0.75 g/L of calcium chloride dihydrate
The culture temperature was adjusted to 34° C., and pH was controlled to a predetermined pH by adding ammonia gas.
Experiments for the growth inhibition effect at an acidic pH (pH 4.5) were first performed with various organic acids.

Molecules are shown by their SMILES.

In the case of `CC(=O)O` [Acetic acid], the Growth inhibition result was “Observed”. Besides, where the note is “listed as acetic acid”, the Growth inhibition result is reported as “evident growth inhibition”.

Consider `O=CO` [Formic acid], for which the Growth inhibition entry was “Observed”. For the same molecule, where the note is “formic acid 0.5 g/L, pH 4.5 (FIG. 11)”, the growth of cells result is “hardly observed”. Also, for the setting “formic acid concentration 0.5 g/L, inhibition observed at lower pH (FIG. 11)”, the “pH region in which growth inhibition by formic acid was not observed” value is reported as at least 5.5. Further, the Growth inhibition result (listed as formic acid) was “evident growth inhibition”. Moreover, the “formic acid concentration in the medium at which growth inhibition was not observed” value (pH 4.5 (FIG. 12)) is given as at most 0.20 g/L.

Regarding `CC(O)C(=O)O` (stereo not drawn) [Lactic acid], the Growth inhibition entry is “Not observed”. In addition, for the setting “listed as lactic acid”, the Growth inhibition result is given as “growth rate comparable to that obtained with the control medium”.

As for `CCC(=O)O` [Propionic acid], the Growth inhibition result is “Observed”. Also, for the setting “listed as propionic acid”, the Growth inhibition result is reported as “evident growth inhibition”.

Take `O=C(O)CCC(=O)O` [Succinic acid]: the Growth inhibition entry is “Not observed”. In addition, the Growth inhibition result (listed as succinic acid) is “did not show growth inhibition”.

As to `O=C(O)/C=C/C(=O)O` [fumaric acid], the Growth inhibition entry is “did not show growth inhibition”.

On to `O=C(O)CC(O)C(=O)O` (stereo not drawn) [malic acid], for which the Growth inhibition result is recorded as “did not show growth inhibition”.
